This is an account of results in ChEMBL document CHEMBL5241090, “A comprehensive overview of β-carbolines and its derivatives as anticancer agents” (Eur J Med Chem, 2021).

The subject of assay [1] is SAOS-2. Description: Cytotoxicity against human SAOS-2 cells by SRB assay. It counts as functional, cell-based. A general note: The SRB assay estimates cell density from bound dye.
Assay [2] is described as follows: Cytotoxicity against human U-87 MG cells by SRB assay. It is filed as functional, cell-based, U-87MG ATCC.
Assay [3] concerns KB. Description: Cytotoxicity against human KB cells by SRB assay. It is filed as functional, cell-based.
The subject of assay [4] is SK-MEL-2. The assay can be described thus: Cytotoxicity against human SK-MEL-2 cells by SRB assay. It counts as functional, cell-based.
The subject of assay [5] is A549. The assay can be described thus: Cytotoxicity against human A549 cells by SRB assay. It is filed as functional, cell-based.
The test system of assay [6] is 1A9. Description: Cytotoxicity against human 1A9 cells by SRB assay. It counts as functional, cell-based.
Assay [7] has as its system MCF7. The assay can be described thus: Cytotoxicity against human MCF7 cells by SRB assay. It counts as functional, cell-based.
In assay [8] the test system is LoVo. The assay can be described thus: Cytotoxicity against human LoVo cells. It is filed as functional, cell-based.
The subject of assay [9] is KB. Description: Cytotoxicity against human KB cells. It is filed as functional, cell-based.
In assay [10] the test system is LoVo. The assay can be described thus: Cytotoxicity against human LoVo cells by MTT assay. It counts as functional. In general terms: Tetrazolium dyes change colour on reduction, which living cells bring about.
Assay [11] has as its system PC-3. Description: Cytotoxicity against human PC-3 cells by MTT assay. It is filed as functional, cell-based.
The test system of assay [12] is HeLa. Description: Cytotoxicity against human HeLa cells by MTT assay. It counts as functional, cell-based.
Assay [13] deals with B16. Description: Cytotoxicity against mouse B16 cells by MTT assay. It is filed as functional, cell-based.
Assay [14] concerns HT-29. Description: Cytotoxicity against human HT-29 cells by MTT assay. It is filed as functional, cell-based.
In assay [15] the test system is Huh-7. The assay can be described thus: Cytotoxicity against human Huh-7 cells. It is filed as functional, cell-based.
Assay [16] relates to MCF7. The assay can be described thus: Cytotoxicity against human MCF7 cells. It counts as functional, cell-based.
Assay [17] deals with HCT-116. The assay can be described thus: Cytotoxicity against human HCT-116 cells. It is filed as functional, cell-based.
Assay [18] relates to HL-60(TB). Description: Antiproliferative activity against human HL-60(TB) cells. It is filed as functional, cell-based.
In assay [19] the test system is K562. The assay can be described thus: Cytotoxicity against human K562 cells. It counts as functional, cell-based.
Assay [20] deals with Breast carcinoma cell. The assay can be described thus: Cytotoxicity against human Breast cancer cell line measured after 72 hrs by MTT assay. It is filed as functional, cell-based.
Assay [21] in a line: Cytotoxicity against human Pancreatic cancer cell measured after 72 hrs by MTT assay. It is filed as functional, cell-based.
In assay [22] the test system is NCI-H460. Description: Antiproliferative activity against human NCI-H460 cells assessed as cell viability incubated for 24 hrs by MTT assay. It is filed as functional, cell-based. The settings on record: NCI-H460, 24 h.
Assay [23] concerns HCT-116. The assay can be described thus: Antiproliferative activity against human HCT-116 cells assessed as cell viability incubated for 24 hrs by MTT assay. It counts as functional, cell-based. As to conditions: HCT-116, 24 h.
Assay [24] deals with NCI-H460. Description: Antiproliferative activity against human NCI-H460 cells assessed as cell viability incubated for 48 hrs by MTT assay. It counts as functional, cell-based. The settings on record: NCI-H460, 48 h.
For assay [25], the system named is T47D. The assay can be described thus: Antiproliferative activity against human T47D cells assessed as cell viability incubated for 24 hrs by MTT assay. It is filed as functional, cell-based.
Assay [26] deals with T47D. Description: Antiproliferative activity against human T47D cells assessed as cell viability incubated for 48 hrs by MTT assay. It counts as functional, cell-based.
For assay [27], the system named is HGC-27. The assay can be described thus: Cytotoxicity against human HGC-27 cells measured after 48 hrs by MTT assay. It is filed as functional, cell-based. As to conditions: HGC-27, 48 h.
Assay [28] deals with PC-3. The assay can be described thus: Cytotoxicity against human PC-3 cells measured after 48 hrs by MTT assay. It is filed as functional, cell-based. The settings on record: PC-3, 48 h.
Assay [29] concerns HeLa. The assay can be described thus: Cytotoxicity against human HeLa cells measured after 48 hrs by MTT assay. It counts as functional, cell-based.
Assay [30] relates to MCF7. The assay can be described thus: Cytotoxicity against human MCF7 cells measured after 48 hrs by MTT assay. It counts as functional, cell-based. As to conditions: MCF7, 48 h.
Assay [31] concerns HT-29. Description: Cytotoxicity against human HT-29 cells measured after 48 hrs by MTT assay. It counts as functional, cell-based. The settings on record: HT-29, 48 h.
Assay [32] concerns A549. The assay can be described thus: Cytotoxicity against human A549 cells assessed as cell viability incubated for 1 hr by spectrophotometry. It is filed as functional, cell-based. As to conditions: A549, 1 h.
The subject of assay [33] is A-375. Description: Cytotoxicity against human A-375 cells assessed as cell viability incubated for 1 hr by spectrophotometry. It is filed as functional, cell-based. As to conditions: A-375, 1 h.
Assay [34] has as its system HepG2. The assay can be described thus: Cytotoxicity against human HepG2 cells assessed as cell viability incubated for 1 hr by spectrophotometry. It is filed as functional, cell-based. As to conditions: HepG2, 1 h.
Assay [35] relates to HT-29. Description: Cytotoxicity against human HT-29 cells assessed as cell viability incubated for 1 hr by spectrophotometry. It is filed as functional, cell-based. As to conditions: HT-29, 1 h.
Assay [36] has as its system HeLa. The assay can be described thus: Cytotoxicity against human HeLa cells assessed as cell viability incubated for 1 hr by spectrophotometry. It is filed as functional, cell-based.
In assay [37] the test system is LoVo. The assay can be described thus: Cytotoxicity against human LoVo cells assessed as cell viability incubated for 1 hr by spectrophotometry. It counts as functional, cell-based.
Assay [38] deals with 786-0. The assay can be described thus: Cytotoxicity against human 786-0 cells assessed as cell viability incubated for 1 hr by spectrophotometry. It counts as functional, cell-based. As to conditions: 786-0, 1 h.
Assay [39] has as its system BGC-823. The assay can be described thus: Cytotoxicity against human BGC-823 cells assessed as cell viability incubated for 1 hr by spectrophotometry. It counts as functional, cell-based. As to conditions: BGC-823, 1 h.
Assay [40] deals with KB. The assay can be described thus: Cytotoxicity against human KB cells assessed as cell viability incubated for 1 hr by spectrophotometry. It is filed as functional, cell-based.
Assay [41] concerns 769-P. Description: Cytotoxicity against human 769-P cells assessed as cell viability incubated for 1 hr by spectrophotometry. It counts as functional, cell-based.
In assay [42] the test system is Bel-7402. The assay can be described thus: Cytotoxicity against human Bel-7402 cells assessed as cell viability incubated for 1 hr by spectrophotometry. As to conditions: Bel-7402, 1 h. It is filed as functional, cell-based.
The nature of assay [43]: Cytotoxicity against human BGC cells. It is filed as functional, cell-based.
In assay [44] the test system is HL-60. Description: Cytotoxicity against human HL-60 cells. It counts as functional, cell-based. As to conditions: hl-60.
Assay [45] relates to HeLa. The assay can be described thus: Cytotoxicity against human HeLa cells. It counts as functional, cell-based.
Assay [46] concerns Hep 3B2. Description: Cytotoxicity against human Hep3B cells. It counts as functional, cell-based.

As a reminder, the IC50 is the concentration that inhibits the measured activity by half.

Converted amounts (≈) assume the structure as drawn.

As for `COc1ccc2c(c1)[nH]c1c(/C=C/c3ccc([N+](=O)[O-])cc3)nccc12`, the IC50 in [1], in [2], in assay [3], in assay [4], in [5] and in assay [6] was 0.3 µg/mL (≈ 0.869 µM) throughout. For the same compound, half-maximal inhibition in assay [7] (IC50) required 0.3 µg/mL (≈ 0.869 µM).
On to `Oc1cccc2c1[nH]c1c(C3=C[C@@]4(O)CC/C=C\CCCCN5CC[C@@H]3[C@]3(C[C@@H]6/C=C\CCCCN6[C@H]34)C5)nccc12`, for which the IC50 is 0.26 µg/mL (≈ 0.46 µM) in assay [8] and 0.3 µg/mL in [9] (Homo sapiens, KB, read-out: IC50).
`CCCCn1c2ccccc2c2cc(C(=O)O)ncc21` had an IC5 in assay [10] of 11 µM.
On to `COc1cc(C(=O)/C=C/c2cc3c([nH]c4ccccc43)c(-c3cc(OC)c(OC)c(OC)c3)n2)cc(OC)c1OC`, for which the half-maximal inhibitory concentration (IC50) in assay [11], in [12], in assay [13] and in assay [14] was 5.3 µM in each case.
As to `Cc1ccc(-c2nc(NCc3ccc(C(=O)NO)cc3)cc3c2[nH]c2ccccc23)cc1`, the IC50 in assay [15], in assay [16] and in assay [17] was 0.53 µM each time.
Take `COc1ccc2[nH]cc(-c3nccc4c3[nH]c3ccc(OC)cc34)c2c1`: the half-inhibitory concentration (IC50) in assay [18] amounted to 4.2 µM.
The compound `CC[C@H](C)[C@H](NC(=O)[C@H](Cc1c[nH]c2ccccc12)NC(=O)[C@H](Cc1c[nH]c2ccccc12)NC(=O)c1cc2c([nH]c3ccccc32)c(-c2ccc(O)c(OC)c2)n1)C(=O)OCc1ccccc1` showed an IC50 in assay [19] of 12 µM.
Turning to `COc1ccc2[nH]c3c(-c4cccc5ccccc45)nccc3c2c1`, the values for the concentration for half-maximal inhibition (IC50) in [20] and in assay [21] were 0.39 µM and 0.38 µM, respectively.
Take `Cc1nccc2c3ccccc3n(CCCCn3c4ccccc4c4ccnc(C)c43)c12`: the IC50 amounted to 10.9 µM in assay [22]; 5.09 µM in assay [23]; 9.58 µM in assay [24]; 9.88 µM in assay [25]; 8.22 µM in assay [26].
With `COc1cc(-c2nc(Cn3cc(CN4C(=O)c5ccccc5C4=O)nn3)cc3c2[nH]c2ccccc23)cc(OC)c1OC`, the IC50 in [27], in assay [28], in assay [29], in [30] and in [31] was 3.67 µM each time.
As to `COc1ccc(/C=C/c2c3c(cc[n+]2Cc2ccccc2)c2ccccc2n3CCCc2ccccc2)cc1`, the IC50 in [32], in assay [33], in [34], in [35], in assay [36] and in [37] was under 5 µM each time. The IC50 in assay [38], in assay [39], in [40], in assay [41] and in assay [42] was under 5 µM throughout.
Turning to `NCCCCNC(=O)c1cc2c(cn1)[nH]c1ccccc12`, the IC50 in assay [43], in assay [44] and in assay [9] (kb) was 8.6 µM in each case.
Consider `CCCCCCCCCCCCCCCCCCCCCCCC(=O)N1CCc2c([nH]c3ccc(O)cc23)[C@H]1Cc1ccc(O)cc1`, for which the IC50 in assay [16], in [45] and in assay [46] was under 2 µM each time.
